This passage reports Kd results from ChEMBL document CHEMBL1125940 (Bioorg Med Chem Lett, 1991).

Positions of bridges follow the written chain, without caps; N, C: chain ends. Non-standard residues stand in square brackets, D forms with d. Residues, ends and D or L forms follow the SMILES beside them. Nle = CCCC[C@H](N)C(=O)O

For assay [1], the target named is T1, Endothelin-1 receptor (Rattus norvegicus, UniProt P26684).
T1 sequence (P26684 whole entry): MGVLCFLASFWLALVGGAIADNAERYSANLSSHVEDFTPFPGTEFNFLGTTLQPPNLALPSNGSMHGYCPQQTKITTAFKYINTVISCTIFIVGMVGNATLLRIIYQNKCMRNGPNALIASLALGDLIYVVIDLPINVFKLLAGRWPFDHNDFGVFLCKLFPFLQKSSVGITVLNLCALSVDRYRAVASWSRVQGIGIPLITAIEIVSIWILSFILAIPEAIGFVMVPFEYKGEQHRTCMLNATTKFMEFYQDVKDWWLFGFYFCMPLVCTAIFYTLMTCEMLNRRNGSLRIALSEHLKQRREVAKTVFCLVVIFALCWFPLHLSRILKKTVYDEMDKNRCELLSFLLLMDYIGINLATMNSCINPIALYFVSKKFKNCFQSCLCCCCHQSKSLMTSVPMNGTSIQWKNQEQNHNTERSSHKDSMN
Nature of the assay: Binding affinity towards Endothelin A receptor in A10 rat thoracic aorta smooth muscle cells using [125I]ET1 as radioligand (Exp 1).

For assay [2], the target named is T1, Endothelin-1 receptor. Nature of the assay: Binding affinity towards Endothelin A receptor in A10 rat thoracic aorta smooth muscle cells using [125I]ET1 as radioligand (Exp 2).

`CC[C@H](C)[C@H](NC(=O)[C@H](CC(=O)O)NC(=O)[C@H](CC(C)C)NC(=O)[C@H](Cc1cnc[nH]1)NC(=O)[C@@H]1CSSC[C@H](N)C(=O)N[C@@H](C)C(=O)N[C@H]2CSSC[C@H](NC(=O)[C@H](CCC(=O)O)NC(=O)[C@H](CCCCN)NC(=O)[C@H](CC(=O)O)NC(=O)[C@H](CCSC)NC(=O)[C@H](CC(C)C)NC(=O)[C@H](CO)NC(=O)[C@H](CO)NC2=O)C(=O)N[C@@H](C(C)C)C(=O)N[C@@H](Cc2ccc(O)cc2)C(=O)N[C@@H](Cc2ccccc2)C(=O)N1)C(=O)N[C@H](C(=O)N[C@@H](Cc1c[nH]c2ccccc12)C(=O)O)[C@@H](C)CC` (H-CACSSLMDKECVYFCHLDIIW-OH; disulfide 1-15, 3-11): the values for the Kd on Endothelin-1 receptor [1] and at Endothelin-1 receptor [2] were 9.6 nM and 409 nM, respectively.
In the same order, the values of `CCCC[C@@H]1NC(=O)[C@H](CC(C)C)NC(=O)[C@H](CO)NC(=O)[C@H](CO)NC(=O)[C@H](C)NC(=O)[C@H](CO)NC(=O)[C@@H](N)CSSC[C@@H](C(=O)N[C@@H](Cc2cnc[nH]2)C(=O)N[C@@H](CC(C)C)C(=O)N[C@@H](CC(=O)O)C(=O)N[C@H](C(=O)N[C@H](C(=O)N[C@@H](Cc2c[nH]c3ccccc23)C(=O)O)[C@@H](C)CC)[C@@H](C)CC)NC(=O)[C@H](Cc2ccccc2)NC(=O)[C@H](Cc2ccc(O)cc2)NC(=O)[C@H](C(C)C)NC(=O)[C@H](C)NC(=O)[C@H](CCC(=O)O)NC(=O)[C@H](CCCCN)NC(=O)[C@H](CC(=O)O)NC1=O` (H-CSASSL[Nle]DKEAVYFCHLDIIW-OH; disulfide 1-15) are 0.35 nM and 16.6 nM.
Regarding `CC[C@H](C)[C@H](NC(=O)[C@H](C)NC(=O)[C@H](CC(C)C)NC(=O)[C@H](Cc1cnc[nH]1)NC(=O)[C@@H]1CSSC[C@H](N)C(=O)N[C@@H](CO)C(=O)N[C@H]2CSSC[C@H](NC(=O)[C@H](CCC(=O)O)NC(=O)[C@H](CCCCN)NC(=O)[C@H](CC(=O)O)NC(=O)[C@H](CCSC)NC(=O)[C@H](CC(C)C)NC(=O)[C@H](CO)NC(=O)[C@H](CO)NC2=O)C(=O)N[C@@H](C(C)C)C(=O)N[C@@H](Cc2ccc(O)cc2)C(=O)N[C@@H](Cc2ccccc2)C(=O)N1)C(=O)N[C@H](C(=O)N[C@@H](Cc1c[nH]c2ccccc12)C(=O)O)[C@@H](C)CC` (H-CSCSSLMDKECVYFCHLAIIW-OH; disulfide 1-15, 3-11), the Kd on Endothelin-1 receptor [1] was found to be 0.7 nM; at Endothelin-1 receptor [2], 80 nM.
In the same order, the values of `CC[C@H](C)[C@H](NC(=O)[C@H](CC(=O)O)NC(=O)[C@H](CC(C)C)NC(=O)[C@H](Cc1cnc[nH]1)NC(=O)[C@@H]1CSSC[C@H](N)C(=O)N[C@@H](CO)C(=O)N[C@H]2CSSC[C@H](NC(=O)[C@H](CCC(=O)O)NC(=O)[C@H](CCCCN)NC(=O)[C@H](CC(=O)O)NC(=O)[C@H](CCSC)NC(=O)[C@H](CC(C)C)NC(=O)[C@H](CO)NC(=O)[C@H](CO)NC2=O)C(=O)N[C@@H](C)C(=O)N[C@@H](Cc2ccc(O)cc2)C(=O)N[C@@H](Cc2ccccc2)C(=O)N1)C(=O)N[C@H](C(=O)N[C@@H](Cc1c[nH]c2ccccc12)C(=O)O)[C@@H](C)CC` (H-CSCSSLMDKECAYFCHLDIIW-OH; disulfide 1-15, 3-11) are 31 nM and 1390 nM.
In the case of `CC[C@H](C)[C@H](NC(=O)[C@H](CC(=O)O)NC(=O)[C@H](C)NC(=O)[C@H](Cc1c[nH]cn1)NC(=O)[C@@H]1CSSC[C@H](N)C(=O)N[C@@H](CO)C(=O)N[C@H]2CSSC[C@H](NC(=O)[C@H](CCC(=O)O)NC(=O)[C@H](CCCCN)NC(=O)[C@H](CC(=O)O)NC(=O)[C@H](CCSC)NC(=O)[C@H](CC(C)C)NC(=O)[C@H](CO)NC(=O)[C@H](CO)NC2=O)C(=O)N[C@@H](C(C)C)C(=O)N[C@@H](Cc2ccc(O)cc2)C(=O)N[C@@H](Cc2ccccc2)C(=O)N1)C(=O)N[C@H](C(=O)N[C@@H](Cc1c[nH]c2ccccc12)C(=O)O)[C@@H](C)CC` (H-CSCSSLMDKECVYFCHADIIW-OH; disulfide 1-15, 3-11), the Kd on Endothelin-1 receptor [1] is 6.6 nM; on Endothelin-1 receptor [2], 1910 nM.
In the same order, the values of `CC[C@H](C)[C@H](NC(=O)[C@H](C)NC(=O)[C@H](CC(=O)O)NC(=O)[C@H](CC(C)C)NC(=O)[C@H](Cc1cnc[nH]1)NC(=O)[C@@H]1CSSC[C@H](N)C(=O)N[C@@H](CO)C(=O)N[C@H]2CSSC[C@H](NC(=O)[C@H](CCC(=O)O)NC(=O)[C@H](CCCCN)NC(=O)[C@H](CC(=O)O)NC(=O)[C@H](CCSC)NC(=O)[C@H](CC(C)C)NC(=O)[C@H](CO)NC(=O)[C@H](CO)NC2=O)C(=O)N[C@@H](C(C)C)C(=O)N[C@@H](Cc2ccc(O)cc2)C(=O)N[C@@H](Cc2ccccc2)C(=O)N1)C(=O)N[C@@H](Cc1c[nH]c2ccccc12)C(=O)O` (H-CSCSSLMDKECVYFCHLDAIW-OH; disulfide 1-15, 3-11) are 96 nM and 3120 nM.

As a reminder, the Kd is the equilibrium constant for the complex coming apart.
